Source: ChEMBL document CHEMBL1201862, “PubChem BioAssay data set” (2004)
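Assay format: 96-well plates, 48-hour exposure. The concentration for 50% growth inhibition is given as GI50.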 The source made the active and inactive calls. No stated cut-off is given here; in the data, active = GI50 up to about 1.1 µM and inactive = higher.

How the values were obtained:
Assay in all cases: DTP human tumour cell line panel, 48 h
MDA-MB-231 = tested on: MDA-MB-231
UACC-62 = tested on: UACC-62
CCRF-CEM = tested on: CCRF-CEM
TK-10 = tested on: TK-10
ACHN = tested on: ACHN
NCI-H522 = tested on: NCI-H522
T47D = tested on: T47D
LOX IMVI = tested on: LOX IMVI
SNB-75 = tested on: SNB-75
Hs-578T = tested on: Hs-578T
DU-145 = tested on: DU-145
SR = tested on: SR
786-0 = tested on: 786-0
SN12C = tested on: SN12C
CAKI-1 = tested on: CAKI-1
HCT-15 = tested on: HCT-15
MOLT-4 = tested on: MOLT-4
SK-MEL-5 = tested on: SK-MEL-5
Malme-3M = tested on: Malme-3M
OVCAR-3 = tested on: OVCAR-3
BT-549 = tested on: BT-549
SW-620 = tested on: SW-620
HCT-116 = tested on: HCT-116
A498 = tested on: A498
MDA-MB-435 = tested on: MDA-MB-435
OVCAR-5 = tested on: OVCAR-5
EKVX = tested on: EKVX
NCI/ADR-RES = tested on: NCI/ADR-RES
SNB-19 = tested on: SNB-19
SK-MEL-2 = tested on: SK-MEL-2
RPMI-8226 = tested on: RPMI-8226
M14 = tested on: M14
RXF 393 = tested on: RXF 393
U-251 = tested on: U-251
MDA-N = tested on: MDA-N
SF-268 = tested on: SF-268
HOP-62 = tested on: HOP-62
HT-29 = tested on: HT-29
NCI-H23 = tested on: NCI-H23
OVCAR-8 = tested on: OVCAR-8
SF-539 = tested on: SF-539
OVCAR-4 = tested on: OVCAR-4
NCI-H460 = tested on: NCI-H460
SK-OV-3 = tested on: SK-OV-3
HL-60 = tested on: HL-60
HOP-92 = tested on: HOP-92
SK-MEL-28 = tested on: SK-MEL-28
A549 = tested on: A549
KM12 = tested on: KM12
K562 = tested on: K562
IGROV-1 = tested on: IGROV-1
MCF7 = tested on: MCF7
COLO 205 = tested on: COLO 205
PC-3 = tested on: PC-3
SF-295 = tested on: SF-295
NCI-H226 = tested on: NCI-H226
UACC-257 = tested on: UACC-257
UO-31 = tested on: UO-31

`CC/N=C(\N)CSS(=O)(=O)O` was tested, and the GI50 (MDA-MB-231) was > 100 µM (inactive), the GI50 (UACC-62) was > 100 µM (inactive) and the GI50 (CCRF-CEM) was > 100 µM (inactive). For the same compound, the GI50 (TK-10) was > 100 µM (inactive), the GI50 (ACHN) was > 100 µM (inactive) and the GI50 (NCI-H522) was > 100 µM (inactive). For the same compound, the GI50 (T47D) was > 100 µM (inactive), the GI50 (LOX IMVI) was 38.3 µM (inactive) and the GI50 (SNB-75) was > 100 µM (inactive). The GI50 (Hs-578T) was > 100 µM (inactive), the GI50 (DU-145) was > 100 µM (inactive) and the GI50 (SR) was 36.5 µM (inactive). The GI50 (786-0) was > 100 µM (inactive), the GI50 (SN12C) was > 100 µM (inactive) and the GI50 (CAKI-1) was > 100 µM (inactive). The GI50 (HCT-15) was greater than 100 µM, the GI50 (MOLT-4) was 34.6 µM (inactive) and the GI50 (SK-MEL-5) was > 100 µM (inactive). The GI50 (Malme-3M) was > 100 µM (inactive), the GI50 (OVCAR-3) was > 100 µM (inactive) and the GI50 (BT-549) was > 100 µM (inactive). The GI50 (SW-620) was > 100 µM (inactive), the GI50 (HCT-116) was > 100 µM (inactive) and the GI50 (A498) was > 100 µM (inactive). For the same compound, the GI50 (MDA-MB-435) was > 100 µM (inactive), the GI50 (OVCAR-5) was > 100 µM (inactive) and the GI50 (EKVX) was > 100 µM (inactive). The GI50 (NCI/ADR-RES) was > 100 µM (inactive), the GI50 (SNB-19) was > 100 µM (inactive) and the GI50 (SK-MEL-2) was > 100 µM (inactive). The GI50 (RPMI-8226) was > 100 µM (inactive), the GI50 (M14) was > 100 µM (inactive) and the GI50 (RXF 393) was > 100 µM (inactive). For the same compound, the GI50 (U-251) was 71.1 µM (inactive), the GI50 (MDA-N) was > 100 µM (inactive) and the GI50 (SF-268) was > 100 µM (inactive). The GI50 (HOP-62) was > 100 µM (inactive), the GI50 (HT-29) was > 100 µM (inactive) and the GI50 (NCI-H23) was > 100 µM (inactive). For the same compound, the GI50 (OVCAR-8) was > 100 µM (inactive), the GI50 (SF-539) was > 100 µM (inactive) and the GI50 (OVCAR-4) was > 100 µM (inactive). The GI50 (NCI-H460) was 77.3 µM (inactive), the GI50 (SK-OV-3) was > 100 µM (inactive) and the GI50 (HL-60) was > 100 µM (inactive). The GI50 (HOP-92) was > 100 µM (inactive), the GI50 (SK-MEL-28) was > 100 µM (inactive) and the GI50 (A549) was > 100 µM (inactive). The GI50 (KM12) was > 100 µM (inactive), the GI50 (K562) was > 100 µM (inactive) and the GI50 (IGROV-1) was > 100 µM (inactive). For the same compound, the GI50 (MCF7) was > 100 µM (inactive), the GI50 (COLO 205) was > 100 µM (inactive) and the GI50 (PC-3) was > 100 µM (inactive). For the same compound, the GI50 (SF-295) was > 100 µM (inactive), the GI50 (NCI-H226) was > 100 µM (inactive) and the GI50 (UACC-257) was > 100 µM (inactive).

In the case of `CCNC(=S)N/N=C/c1ccccn1`, the GI50 (MDA-MB-231) is reported as 7.05 µM (inactive), the GI50 (UACC-62) is reported as 9.98 µM (inactive) and the GI50 (CCRF-CEM) is reported as 0.957 µM (active). The GI50 (TK-10) was 25.2 µM (inactive), the GI50 (ACHN) was 5.69 µM (inactive) and the GI50 (NCI-H522) was 0.579 µM (active). The GI50 (T47D) was 1.98 µM (inactive), the GI50 (LOX IMVI) was 7.18 µM (inactive) and the GI50 (SNB-75) was 62.2 µM (inactive). The GI50 (Hs-578T) was > 100 µM (inactive), the GI50 (DU-145) was 7.13 µM (inactive) and the GI50 (SR) was > 100 µM (inactive). For the same compound, the GI50 (786-0) was 5.81 µM (inactive), the GI50 (SN12C) was 4.97 µM (inactive) and the GI50 (HCT-15) was 6.64 µM. For the same compound, the GI50 (MOLT-4) was 1.58 µM (inactive), the GI50 (SK-MEL-5) was 3.95 µM (inactive) and the GI50 (Malme-3M) was 5.78 µM (inactive). The GI50 (OVCAR-3) was 0.729 µM (active), the GI50 (BT-549) was 20.9 µM (inactive) and the GI50 (SW-620) was 6 µM (inactive). The GI50 (HCT-116) was 8.93 µM (inactive), the GI50 (A498) was 5.09 µM (inactive) and the GI50 (MDA-MB-435) was 16.3 µM (inactive). The GI50 (OVCAR-5) was 15.4 µM (inactive), the GI50 (EKVX) was 4.54 µM (inactive) and the GI50 (NCI/ADR-RES) was 6.95 µM (inactive). The GI50 (SNB-19) was 19.6 µM (inactive), the GI50 (SK-MEL-2) was 42.2 µM (inactive) and the GI50 (M14) was 9.4 µM (inactive). For the same compound, the GI50 (RXF 393) was 19 µM (inactive), the GI50 (U-251) was 6.55 µM (inactive) and the GI50 (MDA-N) was 27.7 µM (inactive). The GI50 (SF-268) was 2.4 µM (inactive), the GI50 (HOP-62) was 6.12 µM (inactive) and the GI50 (HT-29) was 4.47 µM (inactive). For the same compound, the GI50 (NCI-H23) was 6.56 µM (inactive), the GI50 (OVCAR-8) was 3.3 µM (inactive) and the GI50 (SF-539) was 6.7 µM (inactive). The GI50 (OVCAR-4) was 1.29 µM (inactive), the GI50 (NCI-H460) was 4.94 µM (inactive) and the GI50 (SK-OV-3) was 5.07 µM (inactive). For the same compound, the GI50 (HL-60) was 3.74 µM (inactive), the GI50 (SK-MEL-28) was 16.7 µM (inactive) and the GI50 (A549) was 7.62 µM (inactive). For the same compound, the GI50 (KM12) was 8.67 µM (inactive), the GI50 (K562) was 2.86 µM (inactive) and the GI50 (IGROV-1) was 5.11 µM (inactive). For the same compound, the GI50 (UO-31) was 2.44 µM (inactive), the GI50 (MCF7) was 3.27 µM (inactive) and the GI50 (COLO 205) was 3.24 µM (inactive). For the same compound, the GI50 (PC-3) was 6.95 µM (inactive), the GI50 (SF-295) was 7.14 µM (inactive) and the GI50 (NCI-H226) was 3.83 µM (inactive). The GI50 (UACC-257) was 6.65 µM (inactive).
